Experimental data taken from the METLIN SMRT retention time set (Domingo-Almenara et al. 2019).

Experiment: gradient 5% acetonitrile 3 min, to 50% in 2 min, to 85% in 15 min, held 3 min, 100 µL/min
Conditions: column: Zorbax Extend-C18 2.1 x 50 mm; eluents: water / acetonitrile, 0.1% formic acid
Procedure, shortened: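 Pure standards were run in mixtures of ~100 molecules by HPLC coupled to a quadrupole time-of-flight mass spectrometer. The column was a Zorbax Extend-C18 (2.1 × 50 mm, 1.8 μm) at 100 μL/min, with water and acetonitrile each containing 0.1% formic acid, in positive and negative ionization mode. Dead and dwell volumes were 40 μL and 900 μL. Retention time was taken from computationally picked adduct peaks, each manually inspected, with data collected over 3 months.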

RP-LC retention time [s]	SMILES
1070	CCOC(=O)c1cccc(NS(=O)(=O)c2c(C)nn(-c3ccc(-c4ccccc4)nn3)c2C)c1
824	O=C(c1cc(S(=O)(=O)N2CCCC(C(=O)N3CCCCCC3)C2)c[nH]1)N1CCCCCC1 (centres undefined)
781	O=C(CSc1nnc(NC(=O)c2ccccc2C(F)(F)F)s1)NC1CCCCC1
575	CCC1(O)CCOC2(CCN(Cc3ccc(OC)c(C)c3)CC2)C1 (centres undefined)
810	O=C(NC1CCCCC1N1C(=O)CSC1=O)c1cc(Cl)ccc1Cl (centres undefined)
777	O=C(Cc1csc(NC(=O)c2cnccn2)n1)Nc1cccc(C(F)(F)F)c1
622	CCn1c(CCNC(=O)c2ccc(OC)c(F)c2)nc2cccnc21
744	CCOc1ccc(CNS(=O)(=O)c2ccc3c(c2)CCCC(=O)N3)cc1
877	COCCCNC(=O)C1CCN(S(=O)(=O)N(CC(C)C)CC(C)C)CC1
652	O=C1CCN(C(=O)C2CCN(C(=O)C3CCCC3)CC2)CCCCCCN1
885	COC(=O)C(C)NC(=O)NCc1cccn1Cc1cc(C)ccc1C (centres undefined)
699	O=C(Cn1ncc2c3ccccc3n(Cc3ccccc3F)c2c1=O)N1CCN(c2ccccn2)CC1
765	COc1ccc(-c2nc(Cn3cnc4ccccc4c3=O)no2)c(OC)c1
671	CN1CCn2cc(S(=O)(=O)Nc3ccc(F)c(F)c3)cc2C1=O
646	Cc1nnc2ccc(N3CCC(C(=O)N4CCN(c5ncccn5)CC4)CC3)nn12
892	O=C(CCc1ccccc1)Nc1nnc(SCC(=O)c2ccccc2)s1
886	Cc1nc(-c2csc(S(=O)(=O)N3CCC(C(=O)Nc4ccc(F)cc4C)CC3)c2)no1
885	COc1ccccc1-c1nnc(-c2cccc(S(=O)(=O)N3CCCC3)c2)o1
713	CCCn1cc(CCNC(=O)Nc2ccc(OC)cc2)c2cccnc21
724	O=C(Nc1ccc(-c2nnc3n2CCCC3)cc1)c1ccc(Cl)cc1
593	CN(C)C(=O)c1ccc2c(c1)N(CC(=O)NCCCN1CCOCC1)C(=O)C1CCCCN21 (centres undefined)
958	CCC1CCCCN1S(=O)(=O)c1cc(-c2cc(C)[nH]n2)sc1C (centres undefined)

RP-LC retention time [s]	SMILES
656	COCCNC(=O)Cn1c(=O)n(-c2ccc(C)cc2)c2ncccc21
589	O=C(c1ccc2c(c1)CCN2C(=O)C1CCC1)N1CCCC1
589	CCN1CCN(CCNC(=O)C2CN(C(=O)c3cccs3)CC23CCCCC3)CC1 (centres undefined)
687	O=C(Cn1cccc1-c1nnc(-c2ccccc2)o1)N1CCN(C2CCCCC2)CC1
718	COCCN1CCC2(CC1)CN(Cc1cc(C)ccc1C)Cc1ccccc1O2
1040	Cn1cc(-c2ccccc2)c2c1c(=O)n(C)c1nn(Cc3nc(-c4ccccc4)no3)c(=O)n21
833	CC(C)CCNC(=O)C1(C)Cn2nc(C(=O)NCC(C)c3ccccc3)cc2C(=O)N1C (centres undefined)
607	COCc1noc([C@@H]2CN(C(=O)CCc3c(C)noc3C)C[C@H]2C(N)=O)n1
637	O=C(CNc1ccccc1)Nc1nc(-c2ccccc2)cs1
792	O=C(c1cccnc1)N1CCC2(CC1)Nc1cc(F)ccc1-n1cccc12
610	Cc1cccc(-c2noc(C3CCCN3C(=O)CNC(=O)c3cccs3)n2)c1 (centres undefined)
1360	CCn1cc(-c2nc(C(=O)Nc3cc(Cl)ccc3OC)cs2)c2cccnc21
860	Cc1ccc(Cn2nnc(-c3noc(C)n3)c2C)cc1
696	O=C(Nc1ccc2c(c1)C(=O)NC2=O)c1cccc([N+](=O)[O-])c1
721	CCn1cnc(S(=O)(=O)N2CCC(C(=O)NCc3cccc(C)c3)CC2)c1
636	CCc1ccc2c(C)nc(NC3=NC(C)(C)C=C(C)N3)nc2c1
731	COCCN1C(=O)CCc2cc(NC(=O)Cc3ccccc3OC)ccc21
747	CC(C)CC(=O)Nc1ccc(OCc2cc(C(=O)NC3CC3)no2)cc1
1200	Cc1ccccc1-c1noc(Cn2c(=O)n(Cc3ccccc3Cl)c(=O)c3sccc32)n1
1070	Cc1cccc(S(=O)(=O)N2CCc3nc(-c4ccccc4)ncc3C2)c1
737	CC1CCN(C(=O)C2N(C(C)C)C(=O)C23CCCC3)CC1 (centres undefined)
824	Cc1ccc(NC(=O)C2CCCN(S(=O)(=O)c3c[nH]c(C(=O)N4CCCC4)c3)C2)nc1 (centres undefined)

RP-LC retention time [s]	SMILES
1290	c1ccc(-c2nc3cc(-c4noc(-c5ccncc5)n4)ccc3o2)cc1
969	CN(C(=O)c1ccc(-c2cnc(N3CCCC3)nc2)cc1)C1CCCCC1
657	CCC(=O)N1CCc2c(C(=O)O)cccc21
862	COc1ccccc1-c1cnn2c(C)cc(C)nc12
724	CCN(CC)C(=O)c1ccc2c(c1)N(CC(=O)NC1CCCCC1)C(=O)CO2
570	CNC(=O)[C@@H]1CN(S(=O)(=O)C(C)C)C[C@H]1c1n[nH]c(C)n1
652	CC(C)C(=O)Nc1ccc(C2(C(=O)N3CCN(C(C)C)CC3)CCCCC2)cc1
582	CCNC(=O)N1CCCN(S(=O)(=O)CC)CC1
615	Cc1ccc(NC(=O)NCC2(N3CCOCC3)CCOC2)cc1C (centres undefined)
708	CC(C)C(=O)N1CCc2cc(CNC(=O)c3ccnn3C)ccc21
775	CCOc1ccc(OCC)c(NC(=O)C2CCCN(C(=O)c3cc(-c4ccccn4)n[nH]3)C2)c1 (centres undefined)
769	COC(=O)c1cccc(NC(=O)NC2CCN(c3ccccc3)C2=O)c1 (centres undefined)
843	CC1CC(=O)N(CC(=O)Nc2cccc([N+](=O)[O-])c2)c2ccccc2S1 (centres undefined)
961	Cc1ccc(N2CC(c3noc(-c4nccc5ccccc45)n3)CC2=O)cc1 (centres undefined)
742	CC(C)NC(=O)N1CCC(OCc2ccccc2)C1 (centres undefined)
686	O=C(Nc1nnc(CCS(=O)(=O)c2ccccc2)o1)C1COc2ccccc2O1 (centres undefined)
702	Cc1nnc(N2CCCC(C(=O)NCc3cccs3)C2)c2nn(-c3ccccc3)c(C)c12 (centres undefined)
791	O=C(c1ccc2c(c1)OCO2)N1CCN(c2ccc(=O)n(-c3ccc(Cl)cc3)n2)CC1
1200	CCOC(=O)c1c(C)oc2nc(C)nc(Nc3ccc4c(c3)OCCO4)c12
683	COC(=O)c1c(C)[nH]c(C(=O)N2CCC(CC(=O)NCCc3ccco3)CC2)c1C
655	O=C(Nc1ccccc1)N1CCCC(Cn2c(C3CC3)nc3cccnc32)C1 (centres undefined)
1060	CCCc1ccc(S(=O)(=O)N2C[C@@H](F)C[C@H]2C(=O)N2CCc3ccccc3C2)cc1

RP-LC retention time [s]	SMILES
1330	Cc1cc(C)c(C)c(S(=O)(=O)N2CCCC2c2nc(-c3ccccc3)no2)c1C (centres undefined)
1240	CC(C)Cc1csc(-c2csc(S(=O)(=O)NCc3ccc(Cl)cc3)c2)n1
710	CC(C)OCCCNC(=O)CCc1nnc2c3cc(-c4ccc(F)cc4)nn3ccn12
875	Cc1cccc(S(=O)(=O)NC2CCN(c3ccccc3)C2=O)c1 (centres undefined)
1070	Cc1cc(C)cc(NC(=O)CN2C(=O)C(C(=O)N3CCCC3)Sc3ccccc32)c1 (centres undefined)
1120	COC(=O)c1ccccc1Nc1c(-c2ccc(F)cc2)nc2cnc(Br)cn12
854	Cc1ccc(CNC(=O)C2CCN(S(C)(=O)=O)c3ccccc3O2)cc1 (centres undefined)
840	CCS(=O)(=O)N1CC(=O)N(c2ccc(Cl)cc2)C(C)(C(=O)NCc2ccc(F)cc2)C1 (centres undefined)
1050	CCN1C(=O)c2cc(S(=O)(=O)Nc3ccc(F)c(F)c3)ccc2Oc2cccnc21
670	CC(=O)NCC(=O)NCc1nn(CC(C)C)c2ccccc12
577	Cc1cc2n(n1)CCCN2C(=O)CCC(=O)N1CCN(Cc2ccc3c(c2)OCO3)CC1
742	O=C(Nc1ccc2c(c1)CCC2)c1ccnc(N2CCNC(c3ccccc3)C2)c1 (centres undefined)
913	COc1ccc(-c2nnc(Cc3nc(-c4cccs4)no3)o2)cc1
808	CCOC(=O)c1c(C)[nH]c(C(=O)N2CCCC(C(=O)NCc3cccc(F)c3)C2)c1C (centres undefined)
845	CC(C)CCNC(=O)C1CCN(Cc2cc3ccccc3n2Cc2cccc(Cl)c2)CC1
752	COc1cccc(C(=O)Nc2c3c(nn2C(C)(C)C)CS(=O)(=O)C3)c1
654	Cn1cnc2c(C(=O)N3CCN(C4CCCCC4)CC3)nn(-c3ccc(Cl)cc3)c2c1=O
710	COC(=O)c1ccc(C(=O)Nc2nnc(-c3cccs3)o2)cc1
751	CC(=O)Nc1ccc(C2(C(=O)NCc3cccc(F)c3)CCC2)cc1

SMILES	RP-LC retention time [s]
Cc1ccc(-n2nccn2)c(C(=O)N2CCN(c3nc4cc(Cl)ccc4o3)CC[C@H]2C)c1	1080
CCCCOC(=O)c1ccc(NC(=O)c2cccn(Cc3cccc([N+](=O)[O-])c3)c2=O)cc1	1140
Cc1ncc2c(n1)C[C@@H]1CC[C@H]2N1S(=O)(=O)c1ccccc1	695
CN1Cc2ccccc2-n2ccnc2C12CCN(C(=O)c1ccc(F)c(F)c1)CC2	619
